Values joined by “and” are separate entries in the source; they are usually repeats but may differ in a detail not shown here. Equal entries are not always repeated.
Legend:
LmNMT = LmNMT (Leishmania major, UniProt Q4Q5S8); assay: biochemical; conditions: read-out: IC50 LmNMT
HsNMT1 = target: T1, HsNMT1 (Homo sapiens, UniProt P30419); assay: NMT enzyme inhibition assay (non-radioactive), human NMT; assay type: biochemical; conditions: for IC50: human NMT isoform 1 (HsNMT1), read-out: IC50 HsNMT; for selectivity factor: LdNMT IC50 versus human enzyme IC50
T1 sequence (P30419 1-496): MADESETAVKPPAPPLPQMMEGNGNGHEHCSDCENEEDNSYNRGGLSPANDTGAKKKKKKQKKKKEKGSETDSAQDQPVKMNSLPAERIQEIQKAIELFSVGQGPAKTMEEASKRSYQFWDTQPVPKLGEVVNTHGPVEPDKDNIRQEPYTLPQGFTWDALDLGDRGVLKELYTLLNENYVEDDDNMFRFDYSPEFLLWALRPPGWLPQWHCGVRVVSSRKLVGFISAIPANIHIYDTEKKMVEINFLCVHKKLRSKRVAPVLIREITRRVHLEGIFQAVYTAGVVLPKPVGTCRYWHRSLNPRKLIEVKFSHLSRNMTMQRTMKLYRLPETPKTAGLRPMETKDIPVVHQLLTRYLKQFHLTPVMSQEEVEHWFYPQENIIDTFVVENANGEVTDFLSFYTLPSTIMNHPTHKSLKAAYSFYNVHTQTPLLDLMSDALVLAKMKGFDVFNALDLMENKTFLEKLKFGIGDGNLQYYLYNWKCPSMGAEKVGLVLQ

LdNMT = target: T2, LdNMT (Leishmania donovani, UniProt D0AB09); assay: NMT enzyme inhibition assay (non-radioactive), L. donovani NMT; assay type: biochemical; conditions: for LE (ligand efficiency): LE = 1.4(-logLdNMT IC50)/N, N = number of non-H atoms; for IC50: read-out: IC50 LdNMT
T2 sequence (D0AB09 1-421): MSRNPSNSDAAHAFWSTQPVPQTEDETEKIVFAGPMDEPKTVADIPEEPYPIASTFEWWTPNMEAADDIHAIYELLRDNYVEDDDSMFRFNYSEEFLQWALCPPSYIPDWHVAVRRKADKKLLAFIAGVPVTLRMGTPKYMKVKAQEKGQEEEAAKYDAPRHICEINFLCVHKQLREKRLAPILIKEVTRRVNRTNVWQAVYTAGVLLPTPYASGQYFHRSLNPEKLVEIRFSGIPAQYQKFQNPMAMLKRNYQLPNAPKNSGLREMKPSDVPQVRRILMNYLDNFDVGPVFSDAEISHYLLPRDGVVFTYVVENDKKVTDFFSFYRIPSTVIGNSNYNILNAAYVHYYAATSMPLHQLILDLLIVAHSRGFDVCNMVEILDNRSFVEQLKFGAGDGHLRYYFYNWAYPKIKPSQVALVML

LmNMT, sequence (Q4Q5S8 5-421 limits assumed): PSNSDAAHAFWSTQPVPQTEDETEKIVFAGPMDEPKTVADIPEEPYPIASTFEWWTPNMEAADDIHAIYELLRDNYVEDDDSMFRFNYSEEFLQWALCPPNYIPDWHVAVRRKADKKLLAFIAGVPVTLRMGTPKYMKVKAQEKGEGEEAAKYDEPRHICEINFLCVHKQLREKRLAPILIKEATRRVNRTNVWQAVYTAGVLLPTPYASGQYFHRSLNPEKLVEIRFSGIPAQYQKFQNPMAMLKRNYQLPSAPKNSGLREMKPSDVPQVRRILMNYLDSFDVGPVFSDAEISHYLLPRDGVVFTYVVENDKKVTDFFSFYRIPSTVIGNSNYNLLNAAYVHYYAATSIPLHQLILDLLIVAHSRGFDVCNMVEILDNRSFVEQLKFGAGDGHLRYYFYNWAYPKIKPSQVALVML

Compound	IC50 (LmNMT) [nM]	selectivity against HsNMT1 (HsNMT1; LdNMT over HsNMT1)	IC50 (HsNMT1)	LE (ligand efficiency) (LdNMT)	IC50 (LdNMT)	selectivity factor (HsNMT1)
CN1CCC(N(C)c2nc(N(C)CCC#N)c3sccc3n2)CC1 [6KV]	299 ± 89	approximately tenfold	3560 ± 490 nM	0.34	250 nM and 247 nM	–
N[C@@H](CC(=O)N1C[C@H](CO)[C@@H](c2ccc(Cl)cc2)C1)Cc1ccc(Cl)cc1 [A6K]	31 ± 4	–	5000 nM and 5160 nM	0.35	77 ± 7 nM	~80
c1cncc(CCNCc2cccc(-c3cccc(CN4CCc5ncsc5C4)c3)c2)c1 [CWZ]	1020 ± 100	–	45000 nM and 45500 nM	0.29	900 nM and 914 nM	50
